{"source": "patent US7935673B2", "about": "“Polyphenol glycoside isolated from acerola” (Nichirei Biosciences, Inc., priority 2004, dated 2011)", "key": {"[1]": {"test": "Antioxidative activity measurement by DPPH radical scavenging", "type": "biochemical", "conditions": "for DPPH radical 50% scavenging concentration: 30° C., 30 minutes, absorbance at 517 nm; for radical scavenging activity compared with α-tocopherol: DPPH reagent, result in words", "description": "Antioxidative activity was evaluated with the use of a stable-radical diphenyl-p-picrylhydradil (DPPH)/ethanol solution. 400 μl of a sample/methanol solution was mixed with 1600 μl of 250 mM acetate buffer (pH=5.5) and 1200 μl of ethanol, at a different concentration, followed by preincubation at 30° C. for 5 minutes. Then, 800 μl of a 500 μM DPPH/ethanol solution was added to each resulting solution, followed by mixing. Each resultant was allowed to stand at 30° C. for 30 minutes, followed by measurement of absorbance at 517 nm. α-tocopherol was also subjected to the same operation. The obtained solution was thus designated as a positive control. A blank solution used was prepared by the same operation with the use of methanol instead of a sample solution. Based on absorbances measured, radical scavenging rates were calculated based on the following equation. Scavenging rate(%)=(1−[Absorbance of a sample]/[Absorbance of a blank])×100 [Equation 1]\nThe concentration of a sample solution was changed stepwise for the measurement of the aforementioned scavenging rate. As a result, the concentration of a sample solution at which the DPPH radical scavenging rate was 50% was obtained so as to be designated as the DPPH radical 50% scavenging concentration. The lower such value, the higher the radical scavenging capacity."}, "[2]": {"system": "α-glucosidase (yeast-derived reagent)", "test": "α-Glucosidase inhibitory activity (maltose substrate)", "type": "biochemical", "conditions": "for IC50: yeast-derived α-glucosidase, maltose substrate, 37° C., 60 minutes, read-out: 50% α-glucosidase inhibition concentration", "description": "A yeast-derived reagent (Wako Pure Chemical) was used as an α-glucosidase. The reagent was dissolved in 10 mM phosphate buffer (pH 7.0) containing 0.2% bovine serum albumin.\nIn the experiment, 0.25 mL of 100 mM phosphate buffer, 0.25 mL of each sample solution at a different concentration, and 0.125 mL of a maltose aqueous solution serving as a substrate at a concentration of 10 mg/mL were mixed, followed by heating at 37° C. for 5 minutes. Then, 0.125 mL of an α-glucosidase solution was added thereto, followed by enzyme treatment at 37° C. for 60 minutes. As a reaction termination solution, 0.5 mL of a 0.2 M sodium carbonate solution was added to each resultant, followed by mixing. The glucose concentration of each reaction solution was measured using Glucose CII-Test Wako (Wako Pure Chemical). An inhibition rate (%) was calculated based on a proportion of the glucose concentration of a solution to which a sample had been added to the glucose concentration of a blank solution to which no sample had been added. Then, the concentration of each sample at which 50% enzyme activity was inhibited was calculated based on such inhibition rate derived from the concentration of the sample, followed by comparison."}, "[3]": {"conditions": "result in words; cited from earlier work"}}}
{"smiles": "OCC1OC2O[C@@H]3[C@@H](c4ccc(O)c(O)c4)Oc4cc(O)cc(O)c4[C@@H]3OC2C(O)C1O", "note": "(stereo in doubt) [Product of the present invention]", "values": [{"measurement": "DPPH radical 50% scavenging concentration", "setting": "[1]", "value": 0.080, "unit": "mg/mL"}, {"measurement": "radical scavenging activity compared with α-tocopherol", "setting": "[1]", "value": "comparable to or exceeding that of α-tocopherol"}, {"measurement": "radical scavenging activity compared with α-tocopherol", "setting": "[1]; listed as novel polyphenol glycoside of the present invention", "value": "almost comparable to that of α-tocopherol"}, {"measurement": "glucosidase inhibitory activity compared with isoquercitrin", "setting": "[2]; result in words", "value": "several times stronger than that of isoquercitrin"}, {"measurement": "glucosidase inhibitory activity compared with taxifolin", "setting": "[2]; result in words", "value": "several times stronger"}, {"measurement": "glucosidase inhibitory activity compared with taxifolin", "setting": "[2]; result in words, listed as polyphenol glycoside of the present invention", "value": "several times stronger than that of taxifolin"}, {"measurement": "IC50", "setting": "[2]", "value": 164, "unit": "µM"}]}
{"smiles": "Cc1c(C)c2c(c(C)c1O)CC[C@@](C)(CCC[C@H](C)CCC[C@H](C)CCCC(C)C)O2", "note": "[α-tocopherol, reference compound]", "values": [{"measurement": "DPPH radical 50% scavenging concentration", "setting": "[1]", "value": 0.127, "unit": "mg/mL"}, {"measurement": "solubility in water", "setting": "[3]", "value": "insoluble in water"}]}
{"smiles": "O=c1c(OC2OC(CO)C(O)C(O)C2O)c(-c2ccc(O)c(O)c2)oc2cc(O)cc(O)c12", "note": "(centres unmarked) [Isoquercitrin, quercetin-3-glucoside, reference compound]", "values": [{"measurement": "IC50", "setting": "[2]", "value": 727, "unit": "µM"}]}
{"smiles": "O=C1c2c(O)cc(O)cc2O[C@H](c2ccc(O)c(O)c2)[C@H]1O", "note": "[Taxifolin, taxifolin, reference compound]", "values": [{"measurement": "IC50", "setting": "[2]", "value": 892, "unit": "µM"}]}
